Laboratory results published in US20240156790A1, “COMPOUNDS, COMPOSITIONS, AND METHODS FOR MODULATING FERROPTOSIS AND TREATING EXCITOTOXIC DISORDERS” (THE TRUSTEES OF COLUMBIA UNIVERSITY IN THE CITY OF NEW YORK, priority 2018, published 2024).
Entries after “also recorded” stand apart in the source; their conditions may differ. Read-outs that look alike come from different tables or passages of the source.

Experiments:
HT-1080 cells [1] = test: Rescue activity of Fer-1 analogs: inhibition of erastin-, IKE- or RSL3-induced death (Alamar Blue viability); format: cell-based; conditions: Homo sapiens
Description: HT-1080 cells are cultured in DMEM containing 10% fetal bovine serum, 1% supplemented non-essential amino acids and 1% pen/strep mixture (Gibco) and maintained in a humidified environment at 37° C. with 5% CO2 in a tissue culture incubator. 1,000 HT-1080 cells are seeded per well in duplicate 384-well plates (Corning) using a BioMek FX liquid handling robot (Beckman Coulter). The next day, the medium is replaced with 36 μL of medium containing 10 μM erastin with 4 μL of medium containing a dilution series (previously prepared) of DMSO, Fer-1 (positive control) or Fer-1 analogs. […] Cells are incubated a further 6 hours and then the Alamar Blue fluorescence intensity recorded using a Victor 3 platereader (PerkinElmer)(ex/em 530/590). All experiments are performed at least twice and the background (no cells)-subtracted Alamar Blue values for each combination are averaged between replicates. The same procedure was repeated by replacing erastin (10 μM) with IKE (3 μM) or RSL3 (0.2 μM).

[2] = Microsomal stability, mouse liver microsomes (Table 1); format: in vitro ADME, Mouse: CD1; conditions: for half-life: liver microsomes; for average % remaining after 120 minutes: compounds with t1/2 > 120 min, in parentheses
Description: Each compound (1 μM) is incubated with mouse plasma, for 4 hours at 37° C., with shaking at 100 rpm. The concentration of compound in the buffer and plasma chambers is determined using LC-MS/MS. Metabolism of each compound is predicted using Sites of Metabolism (Schrodinger Suite), which combines intrinsic reactivity analysis (Hammett-Taft) with induced fit docking against 2C9, 2D6 and 3A4. This approach identifies 90% of known metabolism sites and has a false positive rate of 17%. The in vitro metabolic stability of each compound in mouse liver microsomes is determined. Pooled mouse liver microsomes are prepared and stored at −80° C. until needed. […]

HT-1080 cells [3] = test: Cell viability assays in HT-1080 cells, ferroptosis induced by IKE or RSL3 (Example 8); format: cell-based
Description: Cell culture assays were incubated at 37° C. with 5% CO2. HT-1080 cells were grown in DMEM (Corning) supplemented with 10% FBS (Life Technologies), 1% Penicillin-Streptomycin 10,000 U/mL (Gibco), and 1% MEM Non-Essential Amino Acids Solution 100× (Gibco). For cell viability assays, cells were trypsinized, counted, and seeded into 384-well white polypropylene plates at 1,000 cells/well, unless otherwise specified. After allowing cells to adhere overnight, compounds in DMSO stocks were arrayed in a 16-point dilution series prepared in a mother plate, and treated from a daughter plate, [DMSO]=0.28%. After 24 or 48 h, 50% CellTiter-Glo (Promega) 50% cell culture medium was added to each well and incubated at room temperature with shaking for 15 min. Luminescence was measured using a Victor X5 plate reader (PerkinElmer). All cell viability data were normalized to the DMSO vehicle condition. […] All 384w measurements were performed in triplicate
We first evaluated the efficacy of four pyridine analogs, TH-2-9-1, TH-2-31, TH-2-37-1, and TH-2-37-2, in suppressing ferroptosis induced by IKE and RSL3 in HT-1080 cells. […] We sought to determine whether incorporation of pyridine changed stability in mouse liver microsomes.

[4] = Microsomal Stability Assay (Examples 6 and 8); format: in vitro ADME, mouse; conditions: for microsomal stability / half-life, in words: assessed over two hours
Description: (§1) To a 96-well polypropylene plate was added phosphate buffer (182.2 μL, pH 7.4, 100 mM) followed by addition of NADPH-regenerating system solution A (10 μL), and NADPH regenerating system solution B (2 μL) (Corning Gentest 3P NADPH regenerating system solution A (#451220) and B (#451200)). A stock solution of analog (0.8 μL. 5 mM) or fer-1 (positive control) was added and the mixture was warmed to 37° C. for 5 min. Mouse microsomes (CD-1, 20 mg/mL, Life Technologies) (5 μL, thawed in 37° C. water bath before use) were added. The resulting reaction mixture was kept at 37° C. with gentle agitation for the duration of the experiment. At selected time points (0, 1, 5, 10, 20, 30, 60 and 120 min) aliquots (15 μL) were withdrawn from the plate and quenched upon addition to cold methanol (60 μL), containing an internal standard (5 μM) in a separate 96-well polypropylene plate. At the completion of the final time-point, the samples were centrifuged at 4,000 rpm for 5 min at 4° C. The supernatant (40 μL) was withdrawn and transferred to a sample vial with insert. The samples were analyzed by LC-MS. LC-MS analysis was performed on a platform comprising a Thermo Scientific Dionex Ultimate 3000 and a Bruker amaZon SL equipped with an electrospray ionization source controlled by Bruker Hystar 3.2. Chromatographic separation was performed by injecting 5 μL of the sample onto an Agilent Eclipse Plus C18 column (2.1×50 mm, 3.5 μm) maintained at 20° C. The flow rate was maintained at 400 μL/min. The initial flow conditions were 80% solvent A (water containing 0.1% acetic acid) and 20% solvent B (methanol containing 0.1% acetic acid). Solvent B was raised to 80% over 0.50 min by 1.50 min. Solvent B was raised to 100% by 5.00 min and held there for 3.25 min. […] All analogs were detected in positive mode as [M+H]*. The percent of compound remaining at each time-point was calculated as the ratio of the integrated compound peak over the internal standard peak and standardized to the t=0 time-point. Values were plotted in GraphPad Prism 9 and fit with a one phase decay.
as §1, with “and NADPH-regenerating” for “and NADPH regenerating”, “rpm (1872 g)” for “rpm”, “[M+H]*. […]” for “[M+H]*. The percent of compound remaining at each time-point was calculated as the ratio of the integrated compound peak over the internal standard peak and standardized to the t=0 time-point. Values were plotted in GraphPad Prism 9 and fit with a one phase decay.”

HT-1080 cells [5] = test: Rescue activity of selected Fer-1 analogs, dose-response in HT-1080 cells (cell titer glo); format: cell-based
Description: Selected Fer-1 analogs containing a pyridine moiety (FIG. 4) were tested to examine their efficacy and overall potency in inhibiting ferroptosis. For each of these compounds, dose-response curves were generated in HT-1080 cells looking at the effectiveness of the molecules in inhibiting ferroptosis induced by either 3 μM IKE or 0.2 μM RSL3, Fer-1 was used as a positive control. For each dose-response curve, 1,000 cells/well were seeded in a 384 well plate and allowed to adhere overnight prior to treating with compound from a daughter plate. Cells were treated for 48 hours, unless otherwise noted, prior to viability being analyzed using cell titer glo (40 μL per well). All liquid handling was performed using the BioMek. All samples were prepared in triplicate, unless otherwise noted.

[6] = HT-1080, ^a 50% viability, HT-1080 cells treated with 10 μM erastin
[7] = CD1, mouse, Mouse: CD1, read-out: Microsomal Stability t1/2
[8] = HT-1080, ^b 50% viability, HT-1080 treated with 3 μM IKE
[9] = HT-1080, ^c 50% viability, HT-1080 treated with 0.2 μM RSL3
[10] = HT-1080, no footnote marker printed, inducer not stated

## Cc1noc(-c2ccc(NC34CC5CC(CC(C5)C3)C4)c(N)c2)n1 [CFI-4066]
HT-1080 cells [1]; [6]
  EC50: 123 nM
[2]; [7]
  half-life: 30.2 to 32.4 min

## CCCCCCNc1cc(C(=O)OC(C)(C)C)c(F)cc1NC12CC3CC(CC(C3)C1)C2 [CFI-A8]
HT-1080 cells [1]; [8]
  EC50: 20 nM
HT-1080 cells [1]; [9]
  EC50: 19 nM
[2]; Mouse: CD1
  Microsomal Stability t1/2: Mouse: >120 min
  average % remaining after 120 minutes: min (76.4%) Human: TBD Rat: TBD Dog: Pig: TBD

## CCCCCCNc1cc(C(=O)OC(C)(C)C)c(C)cc1NC12CC3CC(CC(C3)C1)C2 [CFI-A9]
HT-1080 cells [1]; [6]
  EC50: 65 nM
[2]; Mouse: CD1
  Microsomal Stability t1/2: Mouse: >120 min
  average % remaining after 120 minutes: min (83.6%) Human: TBD Rat: TBD Dog Pig: TBD

## CC(C)(C)OC(=O)c1ccc(NC2CCCCC2)c(NC23CC4CC(CC(C4)C2)C3)c1 [CFI-L034]
HT-1080 cells [1]; [10]
  EC50: 166 nM
[2]; CD1 (mouse), mouse, human, in either mouse or human liver microsomes, read-out: T1/2
  half-life: > 120 min
[2]; [7]
  half-life: > 120 min
[2]; Mouse: CD1
  average % remaining after 120 minutes: min (60.2%) Human: TBD Rat: TBD Dog: Pig: TBD

## C=C/C=C(/CN/C(=C/C(=C\C)C(=O)OCC)CNC(CC)CCC)C(=C)O (stereo not shown) [CFI-M82]
[2]; Mouse: CD1
  Microsomal Stability t1/2: Mouse: 10 min

## CC(C)(C)OC(=O)c1ccc(NC23CC4CC(CC(C4)C2)C3)c(NC2CCCCC2)c1 [DL032, tert-butyl 4-(((3s,5s,7s)-adamantan-1-yl)amino)-3-(cyclohexylamino)benzoate]
HT-1080 cells [3]
  potency relative to fer-1 at suppressing ferroptosis, in words: more potent than fer-1
[4]
  microsomal stability / half-life, in words: half-lives greater than two hours

## CC(C)(C)OC(=O)c1ccc(NC2CCCCC2)c(NC23CC4CC(CC(C4)C2)C3)c1 [DL034, tert-butyl 3-(((3s,5s,7s)-adamantan-1-yl)amino)-4-(cyclohexylamino)benzoate]
HT-1080 cells [3]
  potency relative to fer-1 at suppressing ferroptosis, in words: less potent than fer-1
[4]
  microsomal stability / half-life, in words: half-lives greater than two hours

## Cc1cccc(C)c1CNc1cc(C(=O)OC(C)(C)C)ccc1NC12CC3CC(CC(C3)C1)C2 [DL047, tert-butyl 4-(((3s,5s,7s)-adamantan-1-yl)amino)-3-((2,6-dimethylbenzyl)amino)benzoate]
HT-1080 cells [3]
  potency relative to fer-1 at suppressing ferroptosis, in words: less potent than fer-1
[4]
  microsomal stability / half-life, in words: half-lives greater than two hours

## Nc1cc(-c2ncco2)ccc1NC1CCCCC1 [PHB4051, N1-cyclohexyl-4-(oxazol-2-yl)benzene-1,2-diamine]
HT-1080 cells [3]
  potency relative to fer-1 at suppressing ferroptosis, in words: more potent than fer-1
[4]; CD-1, mouse, liver microsomes, pH 7.4, text, read-out: half-life in mouse liver microsomes
  half-life at 20 µM: < 60 min
[4]
  microsomal stability / half-life, in words: the least stable compound

## Cc1noc(-c2ccc(NC34CC5CC(CC(C5)C3)C4)c(NC3CCCCC3)c2)n1 [PHB4083, N1-((3s,5s,7s)-adamantan-1-yl)-N2-cyclohexyl-4-(3-methyl-1,2,4-oxadiazol-5-yl)benzene-1,2-diamine]
HT-1080 cells [3]
  potency relative to fer-1 at suppressing ferroptosis, in words: more potent than fer-1
[4]
  microsomal stability / half-life, in words: half-lives greater than two hours

## COc1cnc(NC2CCCCC2)c(N)c1 [TH-2-5, N^2-cyclohexyl-5-methoxypyridine-2,3-diamine]
HT-1080 cells [5]; 0.2 μM RSL3, inhibitor range 10 μM-0 μM
  death observed with RSL3: No death was observed
HT-1080 cells [1]; [10]
  EC50: > 350 nM

## Cc1noc(-c2cnc(NC3CCCCC3)c(N)c2)n1 [TH-2-30]
HT-1080 cells [5]; 3 μM IKE, 0.2 μM RSL3, 10 μM erastin
  potency compared, in words: relatively less potent; also recorded: potency comparable to Fer-1 against IKE and RSL3
HT-1080 cells [5]; at 10 μM compound
  toxicity (overall drop in viability): appeared to be toxic
HT-1080 cells [1]; [8]
  EC50: 461 nM
HT-1080 cells [1]; [9]
  EC50: 118 nM
